Source: patent US20240150377A1, “MODULATORS OF CYSTIC FIBROSIS TRANSMEMBRANE CONDUCTANCE REGULATOR” (VERTEX PHARMACEUTICALS INCORPORATED, priority 2020, published 2024)
Like-named read-outs stand apart in the source and are kept apart here.

Molecular target: CFTR (Homo sapiens, UniProt P13569)
Assay: Membrane potential dye, Enteroid Assay A
Type: cell-based
Conditions: for Ent. A Max Activity: chloride transport as % of triple combination control (Enteroid Assay A); for EC50: human enteroid cells, 18-24 hours, acute 10 μM forskolin and 300 nM ivacaftor, read-out: Ent. A EC50
Description: Base medium (ADF+++) consisted of Advanced DMEM/Ham's F12, 2 mM Glutamax, 10 mM HEPES, […] penicillin/streptomycin.
Intestinal enteroid maintenance medium (IEMM) consisted of ADF+++, 1× B27 supplement, 1× N2 supplement, 1.25 mM N-acetyl cysteine, 10 mM Nicotinamide, 50 ng/mL hEGF, 10 nM Gastrin, 1 μg/mL hR-spondin-1, 100 ng/mL hNoggin, TGF-b type 1 inhibitor A-83-01, 100 μg/mL Primocin, 10 μM P38 MAPK inhibitor SB202190.
Bath 1 Buffer consisted of 1 mM MgCl2, 160 mM NaCl, 4.5 mM KCl, 10 mM HEPES, 10 mM Glucose, 2 mM CaCl2).
Chloride Free Buffer consisted of 1 mM Magnesium Gluconate, 2 mM Calcium Gluconate, 4.5 mM Potassium Gluconate, 160 mM Sodium Gluconate, 10 mM HEPES, 10 mM Glucose.
BathI Dye Solution consisted of Bath 1 Buffer, 0.04% Pluronic F127, 20 μM Methyl Oxonol, 30 μM CaCCinh-A01, 30 μM Chicago Sky Blue.
Chloride Free Dye Solution consisted of Chloride Free Buffer, 0.04% Pluronic F127, 20 μM Methyl Oxonol, 30 μM CaCCinh-A01, 30 μM Chicago Sky Blue.
Chloride Free Dye Stimulation Solution consisted of Chloride Free Dye Solution, 10 μM forskolin, 100 μM IBMX, and 300 nM Compound III.
Human intestinal epithelial enteroid cells were obtained from the Hubrecht Institute for Developmental Biology and Stem Cell Research, Utrecht, The Netherlands and expanded in T-Flasks as previously described (Dekkers J F, Wiegerinck C L, de Jonge H R, Bronsveld I, Janssens H M, de Winter-de Groot K M, Brandsma A M, de Jong N W M, Bijvelds M J C, Scholte B J, Nieuwenhuis E E S, van den Brink S, Clevers H, van der Ent C K, Middendorp S and M Beekman J M. A functional CFTR assay using primary cystic fibrosis intestinal organoids. Nat Med. 2013 July;19(7):939-45.).
3. Enteroid Cell Harvesting and Seeding
Cells were recovered in cell recovery solution, collected by centrifugation at 650 rpm for 5 min at 4° C., resuspended in TrypLE and incubated for 5 min at 37° C. Cells were then collected by centrifugation at 650 rpm for 5 min at 4° C. and resuspended in IEMM containing 10 μM ROCK inhibitor (RI). The cell suspension was passed through a 40 μm cell strainer and resuspended at 1×10^6 cells/mL in IEMM containing 10 μM RI. Cells were seeded at 5000 cells/well into multi-well plates and incubated for overnight at 37° C., 95% humidity and 5% CO2 prior to assay.
4. Membrane Potential Dye, Enteroid Assay A
Enteroid cells were incubated with test compound in IEMM for 18-24 hours at 37° C., 95% humidity and 5% CO2. […] Briefly, cells were washed 5 times in Bath 1 Buffer. Bath 1 Dye Solution was added, and the cells were incubated for 25 min at room temperature. Following dye incubation, cells were washed 3 times in Chloride Free Dye Solution. Chloride transport was initiated by addition of Chloride Free Dye Stimulation Solution and the fluorescence signal was read for 15 min. […] Chloride transport was then expressed as a percentage of the chloride transport following treatment with 3 μM N-[(6-amino-2-pyridyl)sulfonyl]-6-(3-fluoro-5-isobutoxy-phenyl)-2-[(4S)-2,2,4-trimethylpyrrolidin-1-yl]pyridine-3-carboxamide, 3 μM (R)-1-(2,2-difluorobenzo[d][1,3]dioxol-5-yl)-N-(1-(2,3-dihydroxypropyl)-6-fluoro-2-(1-hydroxy-2-methylpropan-2-yl)-1H-indol-5-yl)cyclopropanecarboxamide and 300 nM acute N-[2,4-bis(1,1-dimethylethyl)-5-hydroxyphenyl]-1,4-dihydro-4-oxoquinoline-3-carboxamide triple combination control (% Activity).

Chain of CFTR (P13569 with tags, fused parts or gaps DEL508-508): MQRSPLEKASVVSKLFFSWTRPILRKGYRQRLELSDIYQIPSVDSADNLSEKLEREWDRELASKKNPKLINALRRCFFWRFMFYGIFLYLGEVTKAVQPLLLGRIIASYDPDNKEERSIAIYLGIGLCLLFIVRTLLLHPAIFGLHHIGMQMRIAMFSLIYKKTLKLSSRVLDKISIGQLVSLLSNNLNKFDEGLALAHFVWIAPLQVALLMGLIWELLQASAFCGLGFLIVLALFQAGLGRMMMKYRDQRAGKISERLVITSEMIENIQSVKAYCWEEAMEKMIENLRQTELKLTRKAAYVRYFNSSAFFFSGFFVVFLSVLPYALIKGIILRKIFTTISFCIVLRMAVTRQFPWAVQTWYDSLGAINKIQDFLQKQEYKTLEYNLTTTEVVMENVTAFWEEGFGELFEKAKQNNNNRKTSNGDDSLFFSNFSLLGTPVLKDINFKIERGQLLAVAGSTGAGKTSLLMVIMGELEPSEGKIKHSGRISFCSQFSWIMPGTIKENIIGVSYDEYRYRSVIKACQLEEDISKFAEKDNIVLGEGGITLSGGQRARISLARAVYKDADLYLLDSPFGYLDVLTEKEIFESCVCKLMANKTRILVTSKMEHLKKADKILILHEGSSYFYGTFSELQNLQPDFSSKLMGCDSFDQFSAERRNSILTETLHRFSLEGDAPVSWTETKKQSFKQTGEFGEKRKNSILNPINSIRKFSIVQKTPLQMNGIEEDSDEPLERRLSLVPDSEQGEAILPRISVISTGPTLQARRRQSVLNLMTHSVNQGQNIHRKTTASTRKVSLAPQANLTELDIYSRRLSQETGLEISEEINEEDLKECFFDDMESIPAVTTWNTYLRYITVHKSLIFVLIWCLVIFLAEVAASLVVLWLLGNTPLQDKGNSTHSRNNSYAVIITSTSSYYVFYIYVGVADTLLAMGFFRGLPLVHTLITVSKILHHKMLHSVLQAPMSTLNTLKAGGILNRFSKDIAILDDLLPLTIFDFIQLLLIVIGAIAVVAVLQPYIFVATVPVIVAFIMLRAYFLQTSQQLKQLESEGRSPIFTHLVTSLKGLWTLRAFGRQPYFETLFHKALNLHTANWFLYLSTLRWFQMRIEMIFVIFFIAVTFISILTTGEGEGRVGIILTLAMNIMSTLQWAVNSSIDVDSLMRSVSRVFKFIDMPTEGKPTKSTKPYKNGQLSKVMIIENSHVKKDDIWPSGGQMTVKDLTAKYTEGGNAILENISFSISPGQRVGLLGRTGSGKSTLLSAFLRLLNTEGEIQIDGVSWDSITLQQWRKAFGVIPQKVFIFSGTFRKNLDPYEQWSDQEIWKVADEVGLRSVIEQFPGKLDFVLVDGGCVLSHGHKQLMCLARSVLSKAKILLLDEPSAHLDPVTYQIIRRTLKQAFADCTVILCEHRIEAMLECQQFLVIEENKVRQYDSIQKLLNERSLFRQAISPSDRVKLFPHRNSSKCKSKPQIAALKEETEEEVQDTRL

Structure (SMILES) | Ent. A Max Activity (Table 6) | EC50 (Table 6) | Ent. A Max Activity (Table 7) | EC50 (Table 7)
Cc1cccc(C)c1-c1cc2nc(n1)NS(=O)(=O)c1cccc(c1)C(=O)N(CC1CCOC1)[C@H](CC(C)C)CO2 (stereo partly shown) [Compound 357] | +++ (+++ is >60%) | < 1000 nM | – | –
Cc1cccc(C)c1-c1cc2nc(n1)NS(=O)(=O)c1cccc(c1)C(=O)N(CCC1CCCCC1)[C@H](CC(C)C)CO2 [Compound 358] | +++ (+++ is >60%) | < 1000 nM | – | –
Cc1cccc(C)c1-c1cc2nc(n1)NS(=O)(=O)c1cccc(c1)C(=O)N(CCCC(=O)O)[C@H](CC(C)C)CO2 [Compound 359] | ++ (++ is 30-60%) | 3000 to 30000 nM | – | –
Cc1cccc(C)c1-c1cc2nc(n1)NS(=O)(=O)c1cccc(c1)C(=O)N(CC1CCN(C)CC1)[C@H](CC(C)C)CO2 [Compound 360] | +++ (+++ is >60%) | 1000 to 3000 nM | – | –
Cc1cccc(C)c1-c1cc2nc(n1)NS(=O)(=O)c1cccc(c1)C(=O)N(Cc1cccnc1)[C@H](CC(C)C)CO2 [Compound 364] | +++ (+++ is >60%) | < 1000 nM | – | –
Cc1cccc(C)c1-c1cc2nc(n1)NS(=O)(=O)c1cccc(c1)C(=O)N(Cc1cncn1C)[C@H](CC(C)C)CO2 [Compound 365] | +++ (+++ is >60%) | 1000 to 3000 nM | – | –
Cc1cccc(C)c1-c1cc2nc(n1)NS(=O)(=O)c1cccc(c1)C(=O)N(CC1CC1)[C@H](CC(C)C)CO2 [Compound 366] | +++ (+++ is >60%) | < 1000 nM | – | –
COC(=O)CCCN1C(=O)c2cccc(c2)S(=O)(=O)Nc2nc(cc(-c3c(C)cccc3C)n2)OC[C@H]1CC(C)C [Compound 367] | +++ (+++ is >60%) | < 1000 nM | – | –
Cc1cccc(C)c1-c1cc2nc(n1)NS(=O)(=O)c1cccc(c1)C(=O)N(Cc1cnc3ccccn13)[C@H](CC(C)C)CO2 [Compound 368] | +++ (+++ is >60%) | < 1000 nM | – | –
Cc1cccc(C)c1-c1cc2nc(n1)NS(=O)(=O)c1cccc(c1)C(=O)N(CCC(C)C)[C@H](CC(C)C)CO2 [Compound 369] | +++ (+++ is >60%) | < 1000 nM | – | –
Cc1cccc(C)c1-c1cc2nc(n1)NS(=O)(=O)c1cccc(c1)C(=O)N(CCC(C1CC1)C1CC1)[C@H](CC(C)C)CO2 [Compound 413] | – | – | +++ (+++ is >60%) | < 1000 nM
Cc1cccc(C)c1-c1cc2nc(n1)NS(=O)(=O)c1cccc(c1)C(=O)N(CC1CC3(CCN(C(C)C)CC3)C1)[C@H](CC(C)C)CO2 [Compound 415] | – | – | +++ (+++ is >60%) | < 1000 nM
Cc1cccc(C)c1-c1cc2nc(n1)NS(=O)(=O)c1cccc(c1)C(=O)N(CC1CC13CCOCC3)[C@H](CC(C)C)CO2 (stereo partly shown) [Compound 416] | – | – | +++ (+++ is >60%) | < 1000 nM
Cc1cccc(C)c1-c1cc2nc(n1)NS(=O)(=O)c1cccc(c1)C(=O)N(Cc1cccn(C)c1=O)[C@H](CC(C)C)CO2 [Compound 417] | – | – | +++ (+++ is >60%) | < 1000 nM
COc1ncccc1CN1C(=O)c2cccc(c2)S(=O)(=O)Nc2nc(cc(-c3c(C)cccc3C)n2)OC[C@H]1CC(C)C [Compound 420] | +++ (+++ is >60%) | < 1000 nM | – | –
COc1ccncc1CN1C(=O)c2cccc(c2)S(=O)(=O)Nc2nc(cc(-c3c(C)cccc3C)n2)OC[C@H]1CC(C)C [Compound 421] | +++ (+++ is >60%) | < 1000 nM | – | –
COc1ccc(CN2C(=O)c3cccc(c3)S(=O)(=O)Nc3nc(cc(-c4c(C)cccc4C)n3)OC[C@H]2CC(C)C)cn1 [Compound 422] | +++ (+++ is >60%) | < 1000 nM | – | –
COc1cccc(CN2C(=O)c3cccc(c3)S(=O)(=O)Nc3nc(cc(-c4c(C)cccc4C)n3)OC[C@H]2CC(C)C)n1 [Compound 423] | +++ (+++ is >60%) | < 1000 nM | – | –

Structure (SMILES) | Ent. A Max Activity (Table 6) | EC50 (Table 6) | Ent. A Max Activity (Table 7) | EC50 (Table 7)
COCCOCCN1C(=O)c2cccc(c2)S(=O)(=O)Nc2nc(cc(-c3c(C)cccc3C)n2)OC[C@H]1CC(C)C [Compound 424] | +++ (+++ is >60%) | < 1000 nM | – | –
Cc1cccc(C)c1-c1cc2nc(n1)NS(=O)(=O)c1cccc(c1)C(=O)N(Cc1ccc(C(C)(C)C)cc1)[C@H](CC(C)C)CO2 [Compound 425] | +++ (+++ is >60%) | < 1000 nM | – | –
Cc1cccc(C)c1-c1cc2nc(n1)NS(=O)(=O)c1cccc(c1)C(=O)N(CC1CCN(C)CC1)[C@H](CC(C)(C)C)CO2 [Compound 426] | +++ (+++ is >60%) | 1000 to 3000 nM | – | –
Cc1cccc(C)c1-c1cc2nc(n1)NS(=O)(=O)c1cccc(c1)C(=O)N(CCOC(C)(C)C)[C@H](CC(C)C)CO2 [Compound 427] | +++ (+++ is >60%) | < 1000 nM | – | –
Cc1cccc(C)c1-c1cc2nc(n1)NS(=O)(=O)c1cccc(c1)C(=O)N(C[C@H]1CCOC(C)(C)C1)[C@H](CC(C)C)CO2 [Compound 428] | +++ (+++ is >60%) | < 1000 nM | – | –
Cc1cccc(C)c1-c1cc2nc(n1)NS(=O)(=O)c1cccc(c1)C(=O)N(CCC(C)(C)C)[C@H](CC(C)C)CO2 [Compound 429] | +++ (+++ is >60%) | < 1000 nM | – | –
Cc1cc(CN2C(=O)c3cccc(c3)S(=O)(=O)Nc3nc(cc(-c4c(C)cccc4C)n3)OC[C@H]2CC(C)C)[nH]n1 [Compound 430] | +++ (+++ is >60%) | < 1000 nM | – | –
Cc1cccc(C)c1-c1cc2nc(n1)NS(=O)(=O)c1cccc(c1)C(=O)N(Cc1cnn(C)c1)[C@H](CC(C)C)CO2 [Compound 432] | +++ (+++ is >60%) | < 1000 nM | – | –
Cc1cccc(C)c1-c1cc2nc(n1)NS(=O)(=O)c1cccc(c1)C(=O)N(C)C[C@H](c1ccc(-c3ccc(C(C)(C)C)cc3)cn1)O2 [Compound 509] | – | – | + (+ is <30%) | –
Cc1cccc(C)c1-c1cc2nc(n1)NS(=O)(=O)c1cccc(c1)C(=O)N(C)C[C@H](c1ccc(-c3ccc(C(C)(C)C)cc3)cn1)O2 [Compound 510] | – | – | +++ (+++ is >60%) | < 1000 nM
Cc1cccc(C)c1-c1cc2nc(n1)NS(=O)(=O)c1cccc(c1)C(=O)N(C)CC(c1ccc(-c3ccc(C(C)(C)C)cc3)cn1)O2 (stereo not shown) [Compound 511] | +++ (+++ is >60%) | < 1000 nM | – | –
Cc1cccc(C)c1-c1cc2nc(n1)NS(=O)(=O)c1cccc(c1)C(=O)N(C)[C@@H](CC(C)C)[C@H](c1ccc(C(C)(C)C)nc1)O2 [Compound 512] | + (+ is <30%) | – | – | –
Cc1cccc(C)c1-c1cc2nc(n1)NS(=O)(=O)c1cccc(c1)C(=O)N(C)CC(c1ccc(-c3ccccc3)cn1)O2 (stereo not shown) [Compound 513] | +++ (+++ is >60%) | 1000 to 3000 nM | – | –
Cc1cccc(C)c1-c1cc2nc(n1)NS(=O)(=O)c1cccc(c1)C(=O)N(Cc1ccccc1)C(C(=O)NCc1ccccc1)CO2 (stereo not shown) [Compound 514] | + (+ is <30%) | 3000 to 30000 nM | – | –
Cc1cccc(C)c1-c1cc2nc(n1)NS(=O)(=O)c1cccc(c1)C(=O)N(Cc1ccccc1)C(C(=O)NC1CCCCC1)CO2 (stereo not shown) [Compound 515] | + (+ is <30%) | 1000 to 3000 nM | – | –
Cc1cccc(C)c1-c1cc2nc(n1)NS(=O)(=O)c1cccc(c1)C(=O)N(C)CC(c1ccc(C(N)=O)cc1)O2 (stereo not shown) [Compound 666] | + (+ is <30%) | – | – | –
Cc1cccc(C)c1-c1cc2nc(n1)NS(=O)(=O)c1cccc(c1)C(=O)N(C)CC(c1ccc(C#N)cc1)O2 (stereo not shown) [Compound 667] | ++ (++ is 30-60%) | 1000 to 3000 nM | – | –
